Measured values reported in the NIST ThermoML archive (doi:10.1016/j.jct.2016.10.034).

Experiment: xn = mol fraction of the nth substance listed
Settings: 100 kPa, Liquid; for viscosity: Falling or rolling sphere viscometry; for mass density: Vibrating tube method

CC[N+]1(C)CCOCC1.O=C([O-])CO [N-ethyl-N-methylmorpholinium glycolate] + O
Settings	mass density [kg/m3]	viscosity [mPa·s]
298.15 K, x1 = 0.0933	1128.6	–
298.15 K, x1 = 0.1688	1170.3	21.4
298.15 K, x1 = 0.2209	1186.5	43.1
298.15 K, x1 = 0.288	1199.7	95.3
298.15 K, x1 = 0.3907	1211.3	359
298.15 K, x1 = 0.4809	1217.5	842
298.15 K, x1 = 0.5793	1221.9	1779
298.15 K, x1 = 0.6669	1224.6	–
298.15 K, x1 = 0.7573	1226.9	–
298.15 K, x1 = 0.8256	1228	–
303.15 K, x1 = 0.0933	1125.6	–
303.15 K, x1 = 0.1688	1167	17
303.15 K, x1 = 0.2209	1183.1	32.9
303.15 K, x1 = 0.288	1196.3	69.7
303.15 K, x1 = 0.3907	1207.9	224
303.15 K, x1 = 0.4809	1214.1	494
303.15 K, x1 = 0.5793	1218.5	1005
303.15 K, x1 = 0.6669	1221.2	1723
303.15 K, x1 = 0.7573	1223.6	–
303.15 K, x1 = 0.8256	1224.8	–
308.15 K, x1 = 0.0933	1122.6	–
308.15 K, x1 = 0.1688	1163.7	13.9
308.15 K, x1 = 0.2209	1179.6	25.8
308.15 K, x1 = 0.288	1192.8	52.3
308.15 K, x1 = 0.3907	1204.5	158
308.15 K, x1 = 0.4809	1210.7	339
308.15 K, x1 = 0.5793	1215.1	678
308.15 K, x1 = 0.6669	1217.9	1151
308.15 K, x1 = 0.7573	1220.2	1866
308.15 K, x1 = 0.8256	1221.5	–
313.15 K, x1 = 0.0933	1119.5	–
313.15 K, x1 = 0.1688	1160.4	11.3
313.15 K, x1 = 0.2209	1176.2	20.1
313.15 K, x1 = 0.288	1189.4	40.5
313.15 K, x1 = 0.3907	1201.1	118
313.15 K, x1 = 0.4809	1207.3	250
313.15 K, x1 = 0.5793	1211.8	496
313.15 K, x1 = 0.6669	1214.6	838
313.15 K, x1 = 0.7573	1216.9	1354
313.15 K, x1 = 0.8256	1218.2	1882
318.15 K, x1 = 0.0933	1116.4	–
318.15 K, x1 = 0.1688	1157	9.61
318.15 K, x1 = 0.2209	1172.8	16.8
318.15 K, x1 = 0.288	1186	32
318.15 K, x1 = 0.3907	1197.7	85.6
318.15 K, x1 = 0.4809	1204	174
318.15 K, x1 = 0.5793	1208.5	334
318.15 K, x1 = 0.6669	1211.2	555
318.15 K, x1 = 0.7573	1213.7	884
318.15 K, x1 = 0.8256	1214.9	1219
323.15 K, x1 = 0.0933	1113.2	–
323.15 K, x1 = 0.1688	1153.6	8.15
323.15 K, x1 = 0.2209	1169.4	13.9
323.15 K, x1 = 0.288	1182.6	25.5
323.15 K, x1 = 0.3907	1194.3	65.4
323.15 K, x1 = 0.4809	1200.6	130
323.15 K, x1 = 0.5793	1205.2	246
323.15 K, x1 = 0.6669	1207.9	405
323.15 K, x1 = 0.7573	1210.3	642
323.15 K, x1 = 0.8256	1211.7	882
328.15 K, x1 = 0.0933	1110	–
328.15 K, x1 = 0.1688	1150.2	6.97
328.15 K, x1 = 0.2209	1166	11.7
328.15 K, x1 = 0.288	1179.2	20.8
328.15 K, x1 = 0.3907	1191	54
328.15 K, x1 = 0.4809	1197.3	98.6
328.15 K, x1 = 0.5793	1201.9	179
328.15 K, x1 = 0.6669	1204.7	283
328.15 K, x1 = 0.7573	1207	435
328.15 K, x1 = 0.8256	1208.5	587
333.15 K, x1 = 0.0933	1106.8	–
333.15 K, x1 = 0.1688	1146.8	6
333.15 K, x1 = 0.2209	1162.6	9.79
333.15 K, x1 = 0.288	1175.8	17.3
333.15 K, x1 = 0.3907	1187.6	43.4
333.15 K, x1 = 0.4809	1194	77.6
333.15 K, x1 = 0.5793	1198.6	138
333.15 K, x1 = 0.6669	1201.5	217
333.15 K, x1 = 0.7573	1203.8	329
333.15 K, x1 = 0.8256	1205.2	441
338.15 K, x1 = 0.0933	1103.5	–
338.15 K, x1 = 0.1688	1143.4	5.2
338.15 K, x1 = 0.2209	1159.2	8.55
338.15 K, x1 = 0.288	1172.4	14.6
338.15 K, x1 = 0.3907	1184.3	32.4
338.15 K, x1 = 0.4809	1190.7	59
338.15 K, x1 = 0.5793	1195.4	105
338.15 K, x1 = 0.6669	1198.3	165
338.15 K, x1 = 0.7573	1200.8	253
338.15 K, x1 = 0.8256	1202.1	340
343.15 K, x1 = 0.0933	1100.2	–
343.15 K, x1 = 0.1688	1140	4.55
343.15 K, x1 = 0.2209	1155.8	7.41
343.15 K, x1 = 0.288	1169	12.4
343.15 K, x1 = 0.3907	1181	28.9
343.15 K, x1 = 0.4809	1187.5	49.6
343.15 K, x1 = 0.5793	1192.2	85.3
343.15 K, x1 = 0.6669	1195.1	131
343.15 K, x1 = 0.7573	1197.6	195
343.15 K, x1 = 0.8256	1199	258
348.15 K, x1 = 0.0933	1096.8	–
348.15 K, x1 = 0.1688	1136.6	4.01
348.15 K, x1 = 0.2209	1152.4	6.46
348.15 K, x1 = 0.288	1165.7	10.7
348.15 K, x1 = 0.3907	1177.7	24.2
348.15 K, x1 = 0.4809	1184.2	40.4
348.15 K, x1 = 0.5793	1189	67.9
348.15 K, x1 = 0.6669	1192	102
348.15 K, x1 = 0.7573	1194.5	150
348.15 K, x1 = 0.8256	1195.9	196
